Consider seven compounds from patent publication US9850283B2, “Macrocyclic inhibitors of the PD-1/PD-L1 and CD80(B7-1)/PD-L1 protein/protein interactions” (BRISTOL-MYERS SQUIBB COMPANY, priority 2013, dated 2017).

Like-named read-outs stand apart in the source and are kept apart here. Starred links: 1 amine or outer side, 2 acyl side, 3 side chain; linkers in the order of their positions; H or OH if unused. Positions of bridges follow the written chain, without caps; N, C: chain ends. Non-standard residues stand in square brackets, D forms with d. Residues, ends and D or L forms follow the SMILES beside them. ξ: configuration not given here. X3 = O=C([C@@H]1C[C@@H](Cc2ccc(F)cc2)CN1[*:1])[*:2]; Phe(4-CH2NH2) = NCc1ccc(C[C@H](N)C(=O)O)cc1; Phe(3-Cl) = N[C@@H](Cc1cccc(Cl)c1)C(=O)O; Bta = N[C@@H](Cc1csc2ccccc12)C(=O)O; NMeF = CN[C@@H](Cc1ccccc1)C(=O)O; dHyp = O=C(O)[C@H]1C[C@H](O)CN1; NMeNle = CCCC[C@H](NC)C(=O)O; NMeA = CN[C@@H](C)C(=O)O; ξhCys = NC(CCS)C(=O)O; Sar = CNCC(=O)O

The target of test [1] is T1, Human PD-L1/PD-1 (Homo sapiens, UniProt Q9NZQ7).
T1 construct: made in house; host or cells: HEK293T
T1 sequence (Q9NZQ7 with tags, fused parts or gaps): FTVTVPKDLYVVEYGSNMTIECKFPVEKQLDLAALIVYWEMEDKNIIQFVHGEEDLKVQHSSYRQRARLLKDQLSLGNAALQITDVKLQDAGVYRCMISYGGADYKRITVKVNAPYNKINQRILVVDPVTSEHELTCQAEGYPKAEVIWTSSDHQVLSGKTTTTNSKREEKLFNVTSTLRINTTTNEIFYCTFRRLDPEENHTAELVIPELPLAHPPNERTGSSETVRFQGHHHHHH
Kind of test: HTRF PD-1-Ig/PD-L1-His binding assay (human PD-L1). The settings on record: cluster symbol; read-out: HTRF IC50 cluster. In a few lines: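 Ig- and His-fused extracellular PD-1/PD-L1 binding in BSA/Tween-20 dPBS. HTRF with Eu anti-Ig (1 nM final) and APC anti-His (20 nM final).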
(In TR-FRET formats the signal depends on donor and acceptor labels being close together.)

In test [2] the target is T2, LK35.2-hPD-L1 cells / PE-labeled PD-1-Ig (Homo sapiens, UniProt Q9NZQ7).
T2 construct: expressed in transfected cells; host or cells: LK35.2 mouse B cell line
T2 sequence (Q9NZQ7 19-290): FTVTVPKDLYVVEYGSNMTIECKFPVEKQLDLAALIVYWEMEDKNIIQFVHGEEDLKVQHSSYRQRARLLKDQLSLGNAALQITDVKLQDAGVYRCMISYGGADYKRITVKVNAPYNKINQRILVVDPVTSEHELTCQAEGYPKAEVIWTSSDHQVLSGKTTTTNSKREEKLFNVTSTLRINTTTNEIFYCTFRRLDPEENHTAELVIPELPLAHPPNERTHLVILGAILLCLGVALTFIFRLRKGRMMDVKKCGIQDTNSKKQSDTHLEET
Put plainly: LK35.2-hPD-L1 cell binding high-content screening assay. The class given is cell-based. Conditions: cluster symbol, read-out: CBA IC50 cluster. In a few lines: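 Binding of PE-conjugated human PD-1-Ig (1 nM final) to human PD-L1 stably expressed on a mouse B-cell line (LK35.2) was measured by high-content imaging after washes. Compound and labeled PD-1-Ig were co-incubated 1 h at 37 °C with cells in RPMI/10% FCS.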

Where [3] appears, read: cell binding assay, cell line not given.
Where [4] appears, read: cell line of CBA not given (LK35.2-hPD-L1 or 293T-hPD-L1).

For orientation: IC50 means the point on the concentration scale where inhibition reaches its midpoint. For `CCCC[C@H]1C(=O)N(C)[C@@H](CCCC)C(=O)N[C@@H](CCC(=O)O)C(=O)N[C@H](C(=O)NCC(N)=O)CSCC(=O)N[C@@H](Cc2ccc(O)cc2)C(=O)N(C)[C@@H](C)C(=O)N[C@@H](CC(=O)O)C(=O)N2CCC[C@H]2C(=O)N[C@@H](Cc2c[nH]cn2)C(=O)N[C@@H](CCCCN)C(=O)N2C[C@H](Cc3ccc(F)cc3)C[C@H]2C(=O)N[C@@H](Cc2c[nH]c3ccccc23)C(=O)N[C@@H](CCCCN)C(=O)N[C@@H](Cc2c[nH]c3ccccc23)C(=O)N1C` [Example 13014] ({CH2CO}-Y[NMeA]DPHK[X3]WKW[NMeNle][NMeNle]ECG-NH2; thioether N-14), the IC50 in test [1] is 0.385 to 6.74 nM; in test [2] (setting [3]), more than 74.3 nM.
For `CCCC[C@H]1C(=O)N(C)[C@@H](CCCC)C(=O)N[C@@H](CC(C)C)C(=O)N[C@H](C(=O)NCC(N)=O)CSCC(=O)N[C@@H](Cc2ccc(O)cc2)C(=O)N(C)[C@@H](C)C(=O)N[C@@H](CC(N)=O)C(=O)N2CCC[C@H]2C(=O)N[C@@H](Cc2cnc[nH]2)C(=O)N[C@@H](CC(C)C)C(=O)N2C[C@H](O)C[C@H]2C(=O)N[C@@H](Cc2c[nH]c3ccccc23)C(=O)N[C@@H](CO)C(=O)N[C@@H](Cc2c[nH]c3ccccc23)C(=O)N1C` [Example 6025], in that order: 0.385 to 6.74 nM and 0.158 to 4.71 nM.
Turning to `CCCC[C@H]1C(=O)N(C)[C@@H](CCCC)C(=O)N[C@@H](CCCNC(=N)N)C(=O)N[C@H](C(=O)NCC(N)=O)CSCC(=O)N[C@@H](Cc2cccc(Cl)c2)C(=O)N(C)[C@@H](C)C(=O)N[C@@H](CC(N)=O)C(=O)N2CCC[C@H]2C(=O)N[C@@H](Cc2cnc[nH]2)C(=O)N[C@@H](CC(C)C)C(=O)N(C)CC(=O)N[C@@H](Cc2c[nH]c3ccccc23)C(=O)N[C@@H](CO)C(=O)N[C@@H](Cc2c[nH]c3ccccc23)C(=O)N1C` [Example 1102] ({CH2CO}-[Phe(3-Cl)][NMeA]NPHL[Sar]WSW[NMeNle][NMeNle]RCG-NH2; thioether N-14), the IC50 was more than 30.5 nM in test [1] and more than 74.3 nM in test [2] (setting [4]).
Consider `CCCC[C@H]1C(=O)N(C)[C@@H](CCCC)C(=O)N[C@@H](CCCNC(=N)N)C(=O)NC(C(=O)NCC(N)=O)CCSCC(=O)N[C@@H](Cc2ccc(O)cc2)C(=O)N(C)[C@@H](C)C(=O)N[C@@H](CC(N)=O)C(=O)N2CCC[C@H]2C(=O)N[C@@H](Cc2cnc[nH]2)C(=O)N[C@@H](CC(C)C)C(=O)N2CCC[C@H]2C(=O)N[C@@H](Cc2c[nH]c3ccccc23)C(=O)N[C@@H](CO)C(=O)N[C@@H](Cc2csc3ccccc23)C(=O)N1C` (some centres unmarked) [Example 9018] ({CH2CO}-Y[NMeA]NPHLPWS[Bta][NMeNle][NMeNle]R[ξhCys]G-NH2; thioether N-14), for which the IC50 is 6.76 to 30.3 nM in test [1] and more than 74.3 nM in test [2] (setting [3]).
On to `CCCC[C@H]1C(=O)N(C)CC(=O)N[C@@H](CC(=O)O)C(=O)N[C@@H](C(C)C)C(=O)N(C)[C@@H](Cc2ccccc2)C(=O)N[C@@H](Cc2ccc(O)cc2)C(=O)N(C)CC(=O)N[C@@H](Cc2c[nH]c3ccccc23)C(=O)N[C@@H](Cc2ccc(CN)cc2)C(=O)N[C@@H](CC(C)C)C(=O)N[C@H](C(=O)NCC(N)=O)CSCC(=O)N[C@@H](Cc2ccccc2)C(=O)N(C)[C@@H](Cc2ccccc2)C(=O)N1C` [Example 3514] ({CH2CO}-F[NMeF][NMeNle][Sar]DV[NMeF]Y[Sar]W[Phe(4-CH2NH2)]LCG-NH2; thioether N-13), for which the IC50 lay within 6.76 to 30.3 nM in test [1] and 4.78 to 72.9 nM in test [2] (setting [3]).
The corresponding values for `CCCC[C@H]1C(=O)N(C)CC(=O)N[C@@H](CC(=O)O)C(=O)N[C@@H](C(C)C)C(=O)N(C)[C@@H](Cc2ccccc2)C(=O)N[C@@H](Cc2ccc(O)cc2)C(=O)N2C[C@@H](O)C[C@@H]2C(=O)N[C@@H](Cc2c[nH]c3ccccc23)C(=O)N[C@@H](Cc2ccc(O)cc2)C(=O)N[C@@H](CC(C)C)C(=O)N[C@H](C(=O)NCC(N)=O)CSCC(=O)N[C@@H](Cc2ccccc2)C(=O)N(C)[C@@H](Cc2ccccc2)C(=O)N1C` [Example 3576] ({CH2CO}-F[NMeF][NMeNle][Sar]DV[NMeF]Y[dHyp]WYLCG-NH2; thioether N-13) are 6.76 to 30.3 nM and 4.78 to 72.9 nM.
Turning to `CCCC[C@H]1C(=O)N(C)[C@@H](CCCC)C(=O)N[C@@H](CCCNC(=N)N)C(=O)N[C@H](C(=O)NCC(N)=O)CSCC(=O)N[C@@H](Cc2ccccc2)C(=O)N(C)[C@@H](C)C(=O)N[C@@H](CC(N)=O)C(=O)N2CCC[C@H]2C(=O)N[C@@H](CC(=O)O)C(=O)N[C@@H](CC(C)C)C(=O)N(C)CC(=O)N[C@@H](Cc2c[nH]c3ccccc23)C(=O)N[C@@H](CO)C(=O)N[C@@H](Cc2c[nH]c3ccccc23)C(=O)N1C` [Example 1064] ({CH2CO}-F[NMeA]NPDL[Sar]WSW[NMeNle][NMeNle]RCG-NH2; thioether N-14), the IC50 was more than 30.5 nM in test [1] and more than 74.3 nM in test [2] (setting [4]).
